In patent US11505548B2, “Heterocyclic compounds and their use for treatment of helminthic infections and diseases” (Celgene Corporation, priority 2019, dated 2022):

test system: Onchocerca gutturosa Adult Male Worms; assay: Onchocerciasis in vitro screening model, worm motility score; assay type: cell-based; conditions: in vitro; Onchocerca gutturosa adult male worms; class A/B/C; read-out: O. gutturosa activity level (IC50 or MED)

Structure (SMILES)	IC50 [nM]
CC(C)Oc1cnc(-c2nsc(Nc3ncccc3C(F)(F)F)n2)cc1C(=O)N(C)C [Compound 218, 5-isopropoxy-N,N-dimethyl-2-(5-(3-(trifluoromethyl)pyridin-2-ylamino)-1,2,4-thiadiazol-3-yl)isonico-tinamide]	500 to 5000
CC(C)Oc1cnc(-c2nsc(Nc3ncc(C(C)C)cc3C(F)(F)F)n2)cc1C(=O)N(C)C [Compound 219, 5-isopropoxy-2-(5-(5-isopropyl-3-(trifluoromethyl)pyridin-2-ylamino)-1,2,4-thiadiazol-3-yl)-N,N-dimethyliso-nicotinamide]	200 to 500
CC(C)Oc1cnc(-c2nsc(Nc3ncccc3C(F)(F)F)n2)cc1C(N)=O [Compound 220, 5-isopropoxy-2-(5-(3-(trifluoromethyl)pyridin-2-ylamino)-1,2,4-thiadiazol-3-yl)isonico-tinamide]	200 to 500
CC(C)Oc1cnc(-c2nsc(Nc3ncc(C(C)C)cc3C(F)(F)F)n2)cc1C(N)=O [Compound 221, 5-isopropoxy-2-(5-(5-isopropyl-3-(trifluoromethyl)pyridin-2-ylamino)-1,2,4-thiadiazol-3-yl)iso-nicotinamide]	200 to 500
CC(=O)N(C)c1cccnc1Nc1nc(-c2ccc(OC(C)C)cn2)no1 [Compound 222, N-(2-(3-(5-isopropoxy-pyridin-2-yl)-1,2,4-oxadiazol-5-ylamino)pyridin-3-yl)-N-methyl-acetamide]	500 to 5000
CC(=O)N(C)c1cccnc1Nc1nc(-c2cc(C(C)C)c(C)cn2)ns1 [Compound 223, N-(2-(3-(4-isopropyl-5-methylpyridin-2-yl)-1,2,4-thiadiazol-5-ylamino)pyridin-3-yl)-N-methyl-acetamide]	200 to 500
CC(C)Oc1cnc(-c2nsc(Nc3ncccc3C(=O)N(C)C)n2)cc1C(F)(F)F [Compound 225, 2-(3-(5-isopropoxy-4-(trifluoromethyl)pyridin-2-yl)-1,2,4-thiadiazol-5-ylamino)-N,N-dimethyl-nicotinamide]	500 to 5000
CC(=O)N(C)c1cccnc1Nc1nc(-c2cc(C#N)c(OC(C)C)cn2)ns1 [Compound 226, N-(2-(3-(4-cyano-5-isopropoxy-pyridin-2-yl)-1,2,4-thiadiazol-5-ylamino)pyridin-3-yl)-N-methyl-acetamide]	500 to 5000
CN(C)C(=O)c1cccnc1Nc1nc(-c2cc3c(cn2)N(C)CC3)ns1 [Compound 229, N,N-dimethyl-2-(3-(1-methyl-2,3-dihydro-1H-pyrrolo[2,3-c]pyridin-5-yl)-1,2,4-thiadiazol-5-ylamino) nicotinamide]	500 to 5000
Cc1cccnc1Nc1nc(-c2cc(C(C)C)c(C(=O)N(C)C)cn2)ns1 [Compound 230, 4-isopropyl-N,N-dimethyl-6-(5-(3-methyl-pyridin-2-ylamino)-1,2,4-thiadiazol-3-yl)nicotinamide]	500 to 5000
Cc1cc(C#N)cnc1Nc1nc(-c2ccc(OC(C)C)cn2)ns1 [Compound 231, 6-(3-(5-isoprop-oxypyridin-2-yl)-1,2,4-thiadiazol-5-ylamino)-5-methyl-nicotinonitrile]	200 to 500
CC(C)Oc1ccnc(-c2nnc(Nc3ccc(C(C)C)cn3)s2)c1 [Compound 232, 5-(4-isopropoxy-pyridin-2-yl)-N-(5-isopropyl-pyridin-2-yl)-1,3,4-thiadiazol-2-amine]	500 to 5000
COc1ccc(Nc2nnc(-c3cc(OC4CCCCC4)ccn3)s2)nc1 [Compound 233, 5-(4-(cyclo-hexyloxy)pyridin-2-y1)-N-(5-methoxypyridin-2-yl)-1,3,4-thiadiazol-2-amine]	< 200
c1ccc(-c2ccnc(Nc3nnc(-c4ccccn4)o3)c2)cc1 [Compound 235, N-(4-phenyl-pyridin-2-yl)-5-(pyridin-2-yl)-1,3,4-oxadiazol-2-amine]	500 to 5000
Cc1ccnc(Nc2nnc(-c3ncccc3C)o2)c1 [Compound 236, 5-(3-methyl-pyridin-2-yl)-N-(4-methy-lpyridin-2-yl)-1,3,4-oxadiazol-2-amine]	500 to 5000
c1ccc(-c2ccnc(Nc3nc(-c4ccccn4)ns3)c2)cc1 [Compound 237, N-(4-phenyl-pyridin-2-yl)-3-(pyridin-2-yl)-1,2,4-thiadiazol-5-amine]	500 to 5000
Cc1ccnc(Nc2nc(-c3ncccc3C)ns2)c1 [Compound 238, 3-(3-methyl-pyridin-2-yl)-N-(4-methyl-pyridin-2-yl)-1,2,4-thiadiazol-5-amine]	< 200
c1ccc(-c2ccnc(Nc3nnc(-c4ccccn4)s3)c2)cc1 [Compound 240, N-(4-pheny-lpyridin-2-yl)-5-(pyridin-2-yl)-1,3,4-thiadiazol-2-amine]	500 to 5000
c1ccc(-c2ccnc(Nc3nnc(-c4ccccn4)[nH]3)c2)cc1 [Compound 241, 4-phenyl-N-(5-(pyridin-2-yl)-4H-1,2,4-triazol-3-yl) pyridin-2-amine]	< 200
Cc1ccnc(Nc2nnc(-c3ncccc3C)[nH]2)c1 [Compound 242, 4-methyl-N-(5-(3-methyl-pyridin-2-yl)-4H-1,2,4-triazol-3-yl)pyridin-2-amine]	500 to 5000
COc1ccc(-c2nnc(Nc3cc(OC(C)C)ccn3)s2)nc1 [Compound 243, N-(4-isoprop-oxypyridin-2-yl)-5-(5-methoxy-pyridin-2-yl)-1,3,4-thiadiazol-2-amine]	500 to 5000
Cc1ccnc(Nc2nnc(-c3ncccc3C)s2)c1 [Compound 244, 5-(3-methyl-pyridin-2-yl)-N-(4-methyl-pyridin-2-yl)-1,3,4-thiadiazol-2-amine]	500 to 5000
c1ccc(-c2ccnc(Nc3nc(-c4ccccn4)no3)c2)cc1 [Compound 246, N-(4-phenyl-pyridin-2-yl)-3-(pyridin-2-yl)-1,2,4-oxadiazol-5-amine]	500 to 5000
CC(=O)N(C)c1cc(C(F)(F)F)cnc1Nc1nc(-c2ccc(OC(C)C)cn2)ns1 [Compound 247, N-(2-(3-(5-isopropoxy-pyridin-2-yl)-1,2,4-thiadiazol-5-ylamino)-5-(trifluoro-methyl)pyridin-3-yl)-N-methylacetamide]	< 200
CC(C)Oc1ccc(-c2nsc(Nc3ncc(C(F)(F)F)cc3N(C)C(=O)C3CC3)n2)nc1 [Compound 248, N-(2-(3-(5-isopropoxy-pyridin-2-yl)-1,2,4-thiadiazol-5-ylamino)-5-(trifluoro-methyl)pyridin-3-yl)-N-methylcyclo-propanecarbox-amide]	500 to 5000
CC(=O)N(C)c1cc(C(F)(F)F)cnc1Nc1nc(-c2cc3c(cn2)N(C)CC3)ns1 [Compound 249, N-methyl-N-(2-(3-(1-methyl-2,3-dihydro-1H-pyrrolo[2,3-c]pyridin-5-yl)-1,2,4-thiadiazol-5-ylamino)-5-(trifluoromethyl)pyridin-3-yl)acetamide]	200 to 500
CC(C)Oc1cnc(-c2nsc(Nc3ncccc3C(=O)N3CCCC3)n2)cc1C(F)(F)F [Compound 251, (2-(3-(5-isopropoxy-4-(trifluoromethyl)pyridin-2-yl)-1,2,4-thiadiazol-5-ylamino)pyridin-3-yl) (pyrrolidin-1-yl)methanone]	500 to 5000
Cc1cnc(Nc2nc(-c3cc(C(N)=O)c(OC(C)C)cn3)ns2)c(C(F)(F)F)c1 [Compound 252, 5-isopropoxy-2-(5-(5-methyl-3-(trifluoro-methyl)pyridin-2-ylamino)-1,2,4-thiadiazol-3-yl)isonico-tinamide]	500 to 5000
